# In publication PMC7333345, “nanoDSF: In vitro Label-Free Method to Monitor Picornavirus Uncoating and Test Compounds Affecting Particle Stability” (Frontiers in Microbiology, 2020):
# Target: T1, RV-A2 (native virion capsid; VP1 hydrophobic pocket) (rhinovirus A2, UniProt P04936)
# T1 construct: native purified virion (propagated virus, monolithic chromatography); 60 copies each of VP1-VP4 cut from the genome polyprotein; VP4 68 aa; with Capsid protein VP2; Capsid protein VP3; Capsid protein VP4
# T1 sequence (P04936 2-850): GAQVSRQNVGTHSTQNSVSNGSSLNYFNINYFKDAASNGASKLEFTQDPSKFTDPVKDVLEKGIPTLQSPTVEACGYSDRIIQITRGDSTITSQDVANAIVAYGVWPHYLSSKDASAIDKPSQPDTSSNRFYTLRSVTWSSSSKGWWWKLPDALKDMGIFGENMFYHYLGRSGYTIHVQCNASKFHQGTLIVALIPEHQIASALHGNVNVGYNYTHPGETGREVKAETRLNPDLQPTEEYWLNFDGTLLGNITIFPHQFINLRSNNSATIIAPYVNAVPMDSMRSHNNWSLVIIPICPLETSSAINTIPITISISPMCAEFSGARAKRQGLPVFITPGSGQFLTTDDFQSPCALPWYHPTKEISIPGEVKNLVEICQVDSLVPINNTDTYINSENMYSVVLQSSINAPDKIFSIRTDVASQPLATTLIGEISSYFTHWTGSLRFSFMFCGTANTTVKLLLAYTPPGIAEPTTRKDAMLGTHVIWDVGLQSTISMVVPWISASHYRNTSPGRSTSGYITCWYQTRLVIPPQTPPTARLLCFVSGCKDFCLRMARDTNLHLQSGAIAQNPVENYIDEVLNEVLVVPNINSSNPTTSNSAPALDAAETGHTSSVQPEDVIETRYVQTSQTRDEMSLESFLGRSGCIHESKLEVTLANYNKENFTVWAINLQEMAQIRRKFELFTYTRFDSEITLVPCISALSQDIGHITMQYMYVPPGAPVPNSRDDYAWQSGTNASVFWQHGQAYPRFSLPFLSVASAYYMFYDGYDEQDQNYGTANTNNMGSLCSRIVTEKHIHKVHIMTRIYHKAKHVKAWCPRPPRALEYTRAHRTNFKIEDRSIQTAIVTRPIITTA
# Test: nanoDSF (intrinsic tryptophan fluorescence, Em350/Em330 ratio)
# Type: binding
# Conditions: 1 mM pleconaril, 2% DMSO, PBS, 1 °C/min, RV-A2 0.5 mg/ml (1 mg/ml in Figure 3 legend), whole virion, against DMSO control
structure (smiles),measurement,value
Cc1cc(CCCOc2c(C)cc(-c3noc(C(F)(F)F)n3)cc2C)on1 [pleconaril],shift of TA (50% N to A particle conversion),5 °C
